Reference: US11510931B2, “Compositions and methods for treating ophthalmic conditions” (MEDICON PHARMACEUTICALS, INC., priority 2016, dated 2022)

How the values were obtained:
IL-1β = IL-1β levels in the ILG of rabbits with DED (ELISA); type: in vivo, rabbit
Protocol: (§1) Using this model, we compared the effect of PS to that of cyclosporine and lifitegrast. Rabbits were treated for 6 days with PS as above or cyclosporine 0.05% or lifitegrast 5% eye drops 3×/day. In addition to determining TUBT, osmolarity and STT, we measured the levels of IL-8 and IL-1β in the ILGs of the rabbits harvested at euthanasia. Both of these cytokines are significant mediators of inflammation in DED. As shown in the table below, PS had statistically significant effects on TBUT, tear osmolarity, IL-8 and IL-1β levels. […] Of note, lifitegrast suppressed STT below the levels of the vehicle group and this suppression was statistically significant, but in the opposite direction for a useful therapeutic effect.
(§2) Moreover, for all three cytokines PS suppressed their unstimulated levels as well (62%, 84% and 4.7% reduction, respectively). In addition, PS suppressed the levels of IL-8 by 64% and IL-1β (not expressed by the cultured cells) by 61% in the ILG of rabbits treated with PS for 1 week compared to controls treated with vehicle (FIG. 8B). TGF-β was not detectable by the method in ILG homogenates. All these changes were statistically significant (p<0.001-0.04, except for the unstimulated TGF-β).

IL-8 = IL-8 levels in the ILG of rabbits with DED (ELISA); type: in vivo, rabbit
Protocol: as §1, §2

[1] = Biodistribution of PS in human eyes (ex vivo); type: in vitro ADME; conditions: human eye ex vivo, 10 min contact, 60 min incubation
Protocol: Biodistribution of PS in human eyes (ex vivo): Human cadaveric eyes were obtained through the Lions Eye Bank for Long Island, Valley Stream, NY. They were preserved on ice and used within 2 h from removal from the donors.
The anterior surface of the human eye (corresponding to an area slightly larger than the palpebral fissure) was brought into direct contact with a PS HP-β-CD solution (PS concentration at 0.5%, 2.0% and 3.3%) and incubated for 10 min at 37° C. The eye was then rinsed with 10% dimethylsulfoxide (DMSO) to remove residual PS from the surface of the eye and incubated in PBS for 60 min. […] At the specified times, ocular tissues were dissected and PS levels determined by HPLC. The Table below summarizes the findings.

[2] = Con A DED rabbits, 6 days, eye drops 3×/day, PS nanoparticles, cyclosporine 0.05%, lifitegrast 5%, mean ± SEM
[3] = rabbits treated with PS for 1 week vs vehicle

SMILES: CCOP(=O)(OCC)OCCCCOC(=O)CC1=C(C)/C(=C/c2ccc([S+](C)[O-])cc2)c2ccc(F)cc21 (stereo not shown) [PS, phosphosulindac]
- IL-1β in the ILG (IL-1β; [2]): 8.4 ± 1.2 pg/mg protein
- suppression of IL-1β levels in the ILG (IL-1β; [3]): 61%
- IL-8 in the ILG (IL-8; [2]): 4.9 ± 1.7 pg/mg protein
- suppression of IL-8 levels in the ILG (IL-8; [3]): 64%
- PS in Aqueous ([1]; 0.5% PS HP-β-CD solution): 2.4 µM
- PS in Choroid ([1]; 0.5% PS HP-β-CD solution): 28.5 µM
- PS in Cornea ([1]; 0.5% PS HP-β-CD solution): 187.2 µM
- PS in Iris ([1]; 0.5% PS HP-β-CD solution): 25.6 µM
- PS in Lens ([1]; 0.5% PS HP-β-CD solution): 0.6 µM
- PS in Retina ([1]; 0.5% PS HP-β-CD solution): 2.9 µM
- PS in Sclera ([1]; 0.5% PS HP-β-CD solution): 381.3 µM
- PS in Vitreous ([1]; 0.5% PS HP-β-CD solution): 0.3 µM
- PS in Cornea ([1]; 2.0% PS HP-β-CD solution): 397.7 µM
- PS in Iris ([1]; 2.0% PS HP-β-CD solution): 34.2 µM
- PS in Lens ([1]; 2.0% PS HP-β-CD solution): 1.4 µM
- PS in Retina ([1]; 2.0% PS HP-β-CD solution): 38.7 µM
- PS in Sclera ([1]; 2.0% PS HP-β-CD solution): 870.9 µM
- PS in Aqueous ([1]; 3.3% PS HP-β-CD solution): 19.5 µM
- PS in Choroid ([1]; 3.3% PS HP-β-CD solution): 261.4 µM
- PS in Cornea ([1]; 3.3% PS HP-β-CD solution): 266.4 µM
- PS in Iris ([1]; 3.3% PS HP-β-CD solution): 169.3 µM
- PS in Lens ([1]; 3.3% PS HP-β-CD solution): 1.9 µM
- PS in Retina ([1]; 3.3% PS HP-β-CD solution): 48.5 µM
- PS in Sclera ([1]; 3.3% PS HP-β-CD solution): 2,596.6 μM
- PS in Vitreous ([1]; 3.3% PS HP-β-CD solution): 4.3 µM
